Tested on: VHSV
Experiment: Inhibition of in vitro VHSV infection of ZF4 cells
Assay type: cell-based, viral haemorrhagic septicemia virus VHSV- 07.71
Details: for VHSV-inhibiting concentrations lower than those of the SERPINe1-derived peptide: ZF4 cells, duplicates (Fig. 3)

| Molecule | VHSV-inhibiting concentrations lower than those of the SERPINe1-derived peptide [fold] | Inhibition of VHSV infectivity in vitro (68 μg per ml (∼40 μM), ZF4 cells (Fig. 3)) [%] |
| --- | --- | --- |
| O=C(O)C(=O)c1cn(Cc2ccccc2)c2ccc(-c3ccc(OC(F)(F)F)cc3)cc12 [tiplaxtinin] | ~50 | – |
| O=C(O[C@@H]1Cc2c(O)cc(O)cc2O[C@@H]1c1cc(O)c(O)c(O)c1)c1cc(O)c(O)c(O)c1 [EGCG] | ~50 | – |
| tannic acid | ~50 | ~95 |

— article PMC7185853 (Fish & Shellfish Immunology, 2015)
